These results are taken from patent US10322143B2, “Inhibitors of ADAMTS4 or ADAMTS5 for use in preventing or treating cardiac remodeling and chronic heart failure” (Universitetet i Oslo, priority 2013, dated 2019).

Test [1] deals with T1, ADAMTS4 (Rattus norvegicus (Rat), UniProt Q9ESP7). Nature of the test: Active ADAMTS4 protein level (immunoblotting) in MI rats. The class given is in vivo. The following applies: PPS-treatment. Here is the method: (§1) At day 0 to 3 (median 2) after surgery, infarct size was quantified by echocardiography using the Vevo2100 system (Visualsonics Inc, Canada) and magnetic resonance imaging (MRi) using a 9.4 T/210 mm/ASR horizontal bore magnet (Agilent Technologies, Inc., USA). Initially, echocardiography was performed to select moderate to large infarcts ranging approximately 40 to 50%. Thereafter, infarct sizes were exactly measured by late-enhancement gadolinium MRi analyses (Bohl S., et al. American Journal of Physiology, 2009; 296 (4): H1200-H1208) and stratified into small infarcts (stratum 1: <43%, stratum 2: 43-48%), and large infarcts (stratum 3: 48-53%, stratum 4: >53%). The rats in each MI stratum and sham group were randomized to receive intervention or control treatment. The intervention group was treated with 6 mg/kg of sodium PPS (Interfarm AS, Norway), while the control group received vehicle (0.9% NaCl), both injected subcutaneously every third day starting from post-operative day 8-10.
Fractional protein lysates from myocardium of rats having undergone MI treated with PPS or vehicle were extracted as previously described in Example 1 and Didangelos et al. (Journal of Biological Chemistry 2012 Jun. 1; 287(23):19341-5). Protein concentrations were measured by western blotting as previously described in Example 1. […]
A general note: A western blot detects proteins with antibodies after separation by electrophoresis.

The target in test [2] is T1, ADAMTS4. Kind of test: ADAMTS4 protein level in myocardial protein fractions (immunoblotting), aortic banding rats. The class given is in vivo. As to conditions: AB-rats after PPS-treatment. Here is the method:
(§2) Three days after AB, rats were stratified by the gradient over the stenosis to ensure similar degree of cardiac stress. Two and two stratified rats were randomized to either 6 mg/kg of the sulfated polysaccharide sodium pentosan polysulfate (PPS) (Interfarm AS, Norway) or vehicle (0.9% NaCl) injected subcutaneously every third day. […] Six weeks after AB or sham operation, the rats were examined by echocardiography and postmortem analysis, performed by experienced investigators (IS, JMA) blinded to treatment group.
Proteins from rat myocardium were extracted as previously described (Didangelos et al. J Biol Chem 2012. 287(23):19341-5). […]
Protein concentrations were measured using the Micro BCA Protein Assay Kit (Pierce/Thermo Scientific, IL). […]
(§3) Membranes were blocked in 5% non-fat dry-milk (170-6404, BioRad) overnight. […] Primary antibodies used were against ADAMTS4 (PA1-1750, Thermo Pierce Scientific, IL), versican full length (sc-25831, Santa Cruz Biotechnology, CA) and versican fragments displaying the neo-epitope DPEEAE (ab19345, Abcam, Cambrigde, UK) resulting from ADAMTS cleavage by ADAMTS1/4 (Sandy J D et al. J Biol Chem 2001. 276(16):13372-8; Didangelos A et al. supra), and quantified by ImageJ.

A further test concerns the target ADAMTS5 (Homo sapiens (Human), UniProt Q9UNA0). The following applies: previous studies; cited from earlier work.
The subject of a further test is ADAMTS5 mRNA. Kind of test: ADAMTS5 mRNA level (qRT-PCR) in MI rats. Type of test: in vivo, rat. As to conditions: PPS-treatment. As to the method: as §1
The mRNA levels of the ADAMTS versicanases ADAMTS1, -4, -5, -8, and -20 (Shiomi T, et al. Pathology International 2010; 60(7):477-96), versican, aggrecan, syndecan-4, tissue inhibitor metalloprotease (TIMP)-3, and membrane-type (MT)4-MMP, were quantified in rat left ventricle by qRT-PCR, as previously described in Example 1.
On the technique in general: In qPCR the cycle at which signal appears reflects the starting amount.

A further test has as its system versican. Nature of the test: Versican DPEEAE fragments and full-length versican in myocardial ECM fractions (immunoblotting), aortic banding rats. The class given is in vivo, rat. Here is the method:
as §2
Proteins from rat myocardium were extracted as previously described (Didangelos et al. J Biol Chem 2012. 287(23):19341-5). Briefly, proteins were separated into three fractions; NaCl-soluble extracellular proteins (NaCl-ECM) and guanidine-soluble extracellular proteins (G-ECM), containing the fluid and matrix compartment of ECM respectively, in addition to cellular and cell-linked proteins dissolvable in SDS (SDS-samples) (FIG. 6D). NaCl-ECM and G-ECM were deglycosylated to remove GAG chains using 4 mU/NaCl-sample and 12 mU/G-sample of Chondroitinase ABC (from Proteus vulgaris, G3667, Sigma-Aldrich, MO) and 5 mU/NaCl-sample and 15 mU/G-sample of keratanase (endo-β-galactosidase from Bacteroides fragilis, G6920, Sigma-Aldrich), as previously described (Didangelos A et al. supra).
Protein concentrations were measured using the Micro BCA Protein Assay Kit (Pierce/Thermo Scientific, IL). Sample buffer was mixed with 5-25 μg (G-samples) or 30 μg (NaCl and SDS samples) of the protein lysate, denatured at 96° C. for 10 min, and run on 1.5 mm 4-12% Bis-Tris gradient gels (Nupage, Invitrogen, CA), with MOPS SDS running buffer until the 37 kDa protein marker reached the bottom of the gel. All protein extracts were loaded blinded to group.
SDS-PAGE and immunoblotting was performed as described in the Criterion BioRad protocol, using polyvinylidene fluoride (PVDF) membranes (GE Healthcare Life Sciences, Uppsala, Sweden). Blots were developed using the ECL Plus Western Blotting Detection System (GE Healthcare) and visualized in the Las-4000 mini from Fujifilm (Japan). Before reprobing, stripping was performed using the Restore Western Blot Stripping Buffer (21059, Thermo Scientific, IL). […]
as §3

Test [3] has as its target ADAMTS4 (Homo sapiens (Human), UniProt O75173). The following applies: previous studies; cited from earlier work.
Test [4] relates to acute ischemia/reperfusion model. As to conditions: administered during reperfusion; cited from earlier work.
[5] abbreviates: PPS-treated AB-rats, normalized to control, median (interquartile range).

Sequence of ADAMTS4 (Homo sapiens (Human), UniProt O75173) (O75173 213-837, species assumed): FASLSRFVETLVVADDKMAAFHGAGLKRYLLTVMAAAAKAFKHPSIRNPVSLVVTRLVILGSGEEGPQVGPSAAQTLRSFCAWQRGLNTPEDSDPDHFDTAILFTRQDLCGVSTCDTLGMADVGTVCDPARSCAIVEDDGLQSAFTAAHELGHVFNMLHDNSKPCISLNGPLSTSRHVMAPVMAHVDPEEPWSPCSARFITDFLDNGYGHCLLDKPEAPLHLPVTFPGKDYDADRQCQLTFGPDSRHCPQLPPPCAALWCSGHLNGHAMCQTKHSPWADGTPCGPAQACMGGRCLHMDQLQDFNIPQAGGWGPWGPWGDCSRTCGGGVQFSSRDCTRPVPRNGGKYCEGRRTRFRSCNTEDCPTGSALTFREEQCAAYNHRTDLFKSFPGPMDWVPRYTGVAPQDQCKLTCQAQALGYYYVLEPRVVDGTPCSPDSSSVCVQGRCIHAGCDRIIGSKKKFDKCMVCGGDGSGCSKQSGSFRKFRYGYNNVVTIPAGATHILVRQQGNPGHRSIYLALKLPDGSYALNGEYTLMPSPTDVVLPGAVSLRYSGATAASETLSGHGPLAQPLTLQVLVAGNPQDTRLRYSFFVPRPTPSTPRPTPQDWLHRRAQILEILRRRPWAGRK
Sequence of ADAMTS5 (Q9UNA0 262-930, species assumed): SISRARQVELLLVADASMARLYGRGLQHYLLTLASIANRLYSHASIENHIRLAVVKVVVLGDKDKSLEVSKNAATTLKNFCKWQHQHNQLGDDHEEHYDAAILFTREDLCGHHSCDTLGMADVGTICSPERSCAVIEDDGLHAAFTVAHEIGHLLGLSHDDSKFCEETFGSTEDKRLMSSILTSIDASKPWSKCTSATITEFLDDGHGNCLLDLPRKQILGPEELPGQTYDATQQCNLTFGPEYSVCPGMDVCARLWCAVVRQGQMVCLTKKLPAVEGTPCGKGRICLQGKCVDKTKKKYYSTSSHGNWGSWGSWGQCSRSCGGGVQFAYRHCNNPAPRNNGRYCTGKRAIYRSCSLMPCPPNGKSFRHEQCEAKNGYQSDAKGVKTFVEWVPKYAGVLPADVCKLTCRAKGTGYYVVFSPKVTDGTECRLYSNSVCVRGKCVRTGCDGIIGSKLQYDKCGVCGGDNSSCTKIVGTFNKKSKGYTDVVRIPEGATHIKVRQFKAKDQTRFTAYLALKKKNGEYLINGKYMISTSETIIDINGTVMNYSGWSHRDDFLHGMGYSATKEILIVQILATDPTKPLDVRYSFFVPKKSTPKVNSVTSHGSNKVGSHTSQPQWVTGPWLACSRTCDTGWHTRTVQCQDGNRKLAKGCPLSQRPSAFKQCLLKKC

Consider pentosan polysulfate [PPS], for which the “active ADAMTS4 protein levels” value on ADAMTS4 [1] is “decreased”. Besides, the “level of ADAMTS4 in the protein fractions” value at ADAMTS4 [2] is given as “not altered”. Moreover, at ADAMTS5, the “aggrecanase activity of ADAMTS5” value was “inhibits”. In the test with ADAMTS5 mRNA, the “ADAMTS5 mRNA levels” value is “decreased”. Further, in the test on versican (PPS-treated AB-rats vs vehicle-treated AB-rats, p=0.05), the “change of p150 versican in NaCl-ECM compared to vehicle-treated AB-rats” value was “halved”. Moreover, in the test on versican (setting [5]), the “level of full-length versican (p400) in G-ECM” value is reported as 1.17 (0.77-6.85) and the “level of p150 versican DPEEAE fragment in NaCl-ECM” value was 1.08 (0.69-1.63). In the test with versican (PPS-treated sham, normalized to control, median (interquartile range)), the “p70 versican fragment level in G-ECM” value is given as 0.34 (0.28-0.61). For the same substance, the “aggrecanase activity of ADAMTS4” value at ADAMTS4 [3] was “inhibits”. Besides, the infarction size entry in test [4] is listed as “reduce infarction size”.
